# Test results taken from patent US7323490B2, “Pyrrole compounds and uses thereof” (Ambit Biosciences Corporation, priority 2003, dated 2008).
# Target: PDE6D (Homo sapiens, UniProt O43924)
# Experiment: phage-based competition binding screen at 2 μM
# Design: made in house; host or cells: phage
# Settings: 2 μM competitor, duplicate
# Experimental: Forty-four molecules were screened for PDE6D binding activity in a standard phage-based competition binding assay, as described in co-pending U.S. patent applications Ser. No. 10/115,442, filed 2 Apr. 2002, and Ser. No. 10/406,797 filed on 2 Apr. 2003 (or PCT International Application PCT/US03/10247 filed 2 Apr. 2003). All compounds were screened in duplicate (duplicate sets of bars) at a concentration of 2 μM.
smiles,measurement,value
CC(C)c1[nH]c(-c2ccc(F)cc2)c(-c2ccccc2)c1C(=O)Nc1ccccc1 [Compound 781430],fraction of PDE6D-displaying phage bound to immobilized atorvastatin (screen outcome),candidate lead compounds
